How the values were obtained:
[1] = tested on: panel of 55 breast cancer cell lines; assay: Cell growth inhibition assay (Cell Titer Glo, 72 h, 9 doses; GI50, TGI, LC50); assay type: cell-based, human; conditions: value is the negative log10 of mol/L
[2] = tested on: luminal, basal, claudin-low and ERBB2AMP breast cancer cell lines; assay: Associations of clinically relevant subtypes and response (non-parametric ANOVA or t-test on GI50 ranks); assay type: cell-based, human
Method in brief: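 Significance was set at FDR p<0.20 after combining p-values across three test sets. Subtype–response associations came from rank-based non-parametric ANOVA or t-tests on GI50. For three-class comparisons, post-hoc tests of each group against the rest identified the most sensitive group, with FDR correction.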

Q: What does the source list for `CCNCCCCNCCCCNCCCCNCCCCNCC=CCNCCCCNCCCCNCCCCNCCCCNCC.Cl.Cl.Cl.Cl.Cl.Cl.Cl.Cl.Cl.Cl` (stereo in doubt) [CGC-11144]?
A: GI50 ([1]; 600MPE cell line, censored GI50 values): 6.49; GI50 ([1]; AU565 cell line, censored GI50 values): 6.31; GI50 ([1]; BT20 cell line, censored GI50 values): 6.52; GI50 ([1]; BT474 cell line, censored GI50 values): 6.02; GI50 ([1]; BT483 cell line, censored GI50 values): 6.25; GI50 ([1]; BT549 cell line, censored GI50 values): 6.65; GI50 ([1]; CAMA1 cell line, censored GI50 values): 6.40; GI50 ([1]; HCC38 cell line, censored GI50 values): 6.81; GI50 ([1]; HCC70 cell line, censored GI50 values): 6.55; GI50 ([1]; HCC202 cell line, censored GI50 values): 6.26; GI50 ([1]; HCC1143 cell line, censored GI50 values): 6.88; GI50 ([1]; HCC1187 cell line, censored GI50 values): 6.02; GI50 ([1]; HCC1395 cell line, censored GI50 values): 6.20; GI50 ([1]; HCC1419 cell line, censored GI50 values): 6.30; GI50 ([1]; HCC1428 cell line, censored GI50 values): 6.33; GI50 ([1]; HCC1500 cell line, censored GI50 values): 6.65; GI50 ([1]; HCC1806 cell line, censored GI50 values): 6.71; GI50 ([1]; HCC1937 cell line, censored GI50 values): 6.76; GI50 ([1]; HCC1954 cell line, censored GI50 values): 6.56; GI50 ([1]; HCC2185 cell line, censored GI50 values): 6.60; GI50 ([1]; HCC3153 cell line, censored GI50 values): 6.72; GI50 ([1]; LY2 cell line, censored GI50 values): 5.18; GI50 ([1]; MCF7 cell line, censored GI50 values): 6.33; GI50 ([1]; MDAMB134VI cell line, censored GI50 values): 6.38; GI50 ([1]; MDAMB157 cell line, censored GI50 values): 6.96; GI50 ([1]; MDAMB175VII cell line, censored GI50 values): 6.75; GI50 ([1]; MDAMB231 cell line, censored GI50 values): 4.66; GI50 ([1]; MDAMB361 cell line, censored GI50 values): 5.78; GI50 ([1]; MDAMB415 cell line, censored GI50 values): 6.78; GI50 ([1]; MDAMB436 cell line, censored GI50 values): 6.06; GI50 ([1]; MDAMB453 cell line, censored GI50 values): 6.28; GI50 ([1]; MDAMB468 cell line, censored GI50 values): 6.17; GI50 ([1]; SKBR3 cell line, censored GI50 values): 5.30; GI50 ([1]; SUM149PT cell line, censored GI50 values): 6.53; GI50 ([1]; SUM159PT cell line, censored GI50 values): 6.60; GI50 ([1]; SUM185PE cell line, censored GI50 values): 6.68; GI50 ([1]; SUM225CWN cell line, censored GI50 values): 5.45; GI50 ([1]; SUM1315MO2 cell line, censored GI50 values): 5.69; GI50 ([1]; cell line 600MPE): 6.49; GI50 ([1]; cell line AU565): 6.31; GI50 ([1]; cell line BT20): 6.52; GI50 ([1]; cell line BT474): 6.02; GI50 ([1]; cell line BT483): 6.25; GI50 ([1]; cell line BT549): 6.65; GI50 ([1]; cell line CAMA1): 6.40; GI50 ([1]; cell line HCC38): 6.81; GI50 ([1]; cell line HCC70): 6.55; GI50 ([1]; cell line HCC202): 6.26; GI50 ([1]; cell line HCC1143): 6.88; GI50 ([1]; cell line HCC1187): 6.02; GI50 ([1]; cell line HCC1395): 6.20; GI50 ([1]; cell line HCC1419): 6.30; GI50 ([1]; cell line HCC1428): 6.33; GI50 ([1]; cell line HCC1500): 6.65; GI50 ([1]; cell line HCC1806): 6.71; GI50 ([1]; cell line HCC1937): 6.76; GI50 ([1]; cell line HCC1954): 6.56; GI50 ([1]; cell line HCC2185): 6.60; GI50 ([1]; cell line HCC3153): 6.72; GI50 ([1]; cell line LY2): 5.18; GI50 ([1]; cell line MCF7): 6.33; GI50 ([1]; cell line MDAMB134V): 6.38; GI50 ([1]; cell line MDAMB157): 6.96; GI50 ([1]; cell line MDAMB175V): 6.75; GI50 ([1]; cell line MDAMB231): 4.66; GI50 ([1]; cell line MDAMB361): 5.78; GI50 ([1]; cell line MDAMB415): 6.78; GI50 ([1]; cell line MDAMB436): 6.06; GI50 ([1]; cell line MDAMB453): 6.28; GI50 ([1]; cell line MDAMB468): 6.17; GI50 ([1]; cell line SKBR3): 5.30; GI50 ([1]; cell line SUM52PE): 6.79; GI50 ([1]; cell line SUM149PT): 6.53; GI50 ([1]; cell line SUM159PT): 6.60; GI50 ([1]; cell line SUM185PE): 6.68; GI50 ([1]; cell line SUM225CWN): 5.45; GI50 ([1]; cell line SUM1315MO): 5.69; GI50 ([1]; cell line T47D): 6.96; GI50 ([1]; cell line UACC812): 6.78; GI50 ([1]; cell line UACC893): 6.60; GI50 ([1]; cell line ZR751): 6.48; association of response with ERBB2 amplification [2]: negatively associated with ERBB2 amplification; Subtype specificity ([2]; Table 6, most sensitive subtype, FDR p<0.20): not ERBB2AMP

From US10770169B2, “Method of providing a treatment to a subject based on a dynamic pathway map” (THE REGENTS OF THE UNIVERSITY OF CALIFORNIA, priority 2010, dated 2020)
